Data taken from patent publication US10543196B2, “Oral dosage forms of bendamustine” (priority 2008, dated 2020).
Structures can show the parent of a compound that is named as a salt.

Experiments:
[1] = Solubility of bendamustine hydrochloride; type: physicochemical
Excerpt: Therefore it is not surprising that the oral bendamustine compositions, as investigated by Preiss et al. and Weber gave rise to relatively poor bioavailability results and a large inter-individual variability.

[2] = patients, oral doses of 250-350 mg, cited from earlier work
[3] = B6D2F1-mice; cited from earlier work
[4] = Stability of an aqueous solution of bendamustine versus pH; type: physicochemical; conditions: pH>5

| SMILES | Solubility in a range of organic solvents [1] | Solubility in ethanol and methanol [1] | Solubility in water ([1]; pH of 2.0) | Time at which maximal plasma levels were detectable after oral administration ([2]; capsules of 25 mg) | Bioavailability (absorption from the gastro-intestinal tract) [3] | Hydrolytic decomposition in aqueous solution [4] | Oral bioavailability, range ([2]; capsules) |
| --- | --- | --- | --- | --- | --- | --- | --- |
| Cn1c(CCCC(=O)O)nc2cc(N(CCCl)CCCl)ccc21 [bendamustine hydrochloride] | slightly or very slightly soluble | good solubility | sparingly soluble | ≤ 1 h | about 40% |  |  |
| Cn1c(CCCC(=O)O)nc2cc(N(CCCl)CCCl)ccc21 [bendamustine, 4-[5-[bis(2-chloroethyl)amino]-1-methylbenzimidazo-2-yl]butanoic acid] |  |  |  |  |  | the decomposition proceeds rapidly | 25-94% |
